From patent US20070128217A1 (priority 2003, published 2007)

Experiments:
[1] = tested on: control sera (pooled serum of ten healthy LUMC hospital workers; commercial negative donor pooled serum from the Dutch bloodbank); type: binding, human; parameters: Binding of Control serum LUMC to linear peptides / Binding of Control serum Blood-bank to linear peptides / Binding of Control serum LUMC to looped peptides / Binding of Control Serum Blood-Bank to Looped peptides / Binding of Control serum LUMC to linear peptides of the protein M of SARS-CoV Urbani / Binding of Control serum Blood-bank to linear peptides of the protein M of SARS-CoV Urbani / Binding of Control serum LUMC to looped peptides of the protein M of SARS-CoV Urbani / Binding of Control Serum Blood-Bank to Looped peptides of the protein M of SARS-CoV Urbani: unit not given here
[2] = tested on: antibodies in sera from SARS patients (sera 1a, 1b, 2, 6, 37, 62, London, SARS-yellow, SARS-green); type: binding, human; parameters: Binding of serum 6 to linear peptides of protein X1 of SARS-CoV Urbani / Binding of serum 37 to linear peptides of protein X1 of SARS-CoV Urbani / Binding of serum 6 to looped/cyclic peptide (PEPSCAN-ELISA) / Binding of serum 37 to looped/cyclic peptide (PEPSCAN-ELISA) / Binding of serum 37 to looped/cyclic peptides of protein X1 of SARS-CoV Urbani / Binding of serum 6 to linear peptides of protein X2 / Binding of serum 37 to linear peptides of protein X2 / Binding of serum 37 to looped/cyclic peptides of protein X2 of SARS-CoV Urbani / Binding of serum 6 to linear peptides of protein M of SARS-CoV Urbani / Binding of serum 37 to linear peptides of protein M of SARS-CoV Urbani / Binding of serum 6 to looped/cyclic peptides of protein M of SARS-CoV Urbani / Binding of serum 37 to looped/cyclic peptides of protein M of SARS-CoV Urbani / Binding of serum 6 to linear peptides of protein X3 of SARS-CoV Urbani / Binding of serum 37 to linear peptides of protein X3 of SARS-CoV Urbani / Binding of serum 37 to looped/cyclic peptides of protein X3 of SARS-CoV Urbani / Binding of serum 6 to linear peptides of protein X4 of SARS-CoV Urbani / Binding of serum 37 to linear peptides of protein X4 of SARS-CoV Urbani / Binding of serum 37 to looped/cyclic peptides of protein X4 of SARS-CoV Urbani / Binding of serum 6 to linear peptides of protein X5 of SARS-CoV Urbani / Binding of serum 37 to linear peptides of protein X5 of SARS-CoV Urbani / Binding of serum 37 to looped/cyclic peptides of protein X5 of SARS-CoV Urbani / Binding of serum 6 to linear peptides of protein N of SARS-CoV Urbani / Binding of serum 37 to linear peptides of protein N of SARS-CoV Urbani / Binding of serum 6 to linear peptide (PEPSCAN-ELISA) / Binding of serum 1a to looped/cyclic peptides of protein N of SARS-CoV Urbani / Binding of serum 1b to looped/cyclic peptides of protein N of SARS-CoV Urbani / Binding of serum 2 to looped/cyclic peptides of protein N of SARS-CoV Urbani / Binding of serum 6 to looped/cyclic peptides of protein N of SARS-CoV Urbani / Binding of serum 37 to looped/cyclic peptides of protein N of SARS-CoV Urbani / Binding of serum 62 to looped/cyclic peptides of protein N of SARS-CoV Urbani / Binding of serum London to looped/cyclic peptides of protein N of SARS-CoV Urbani / Binding of serum SARS-green to looped/cyclic peptides of protein N of SARS-CoV Urbani: unit not given here
[3] = tested on: rabbit serum obtained by immunizing a rabbit with the SARS-CoV strain Frankfurt 1; type: binding; parameters: Binding of a rabbit serum to linear peptides / Binding of a rabbit serum to looped peptides / Rabbit serum linear peptides / Rabbit serum looped peptides / Binding of a rabbit serum to linear peptides of protein N of SARS-CoV Urbani (Rabbit serum linear peptides) / Binding of a rabbit serum to looped/cyclic peptides of protein N of SARS-CoV Urbani (Rabbit serum looped peptides): unit not given here

## SEETGTLIVNSVLLF
[1]
  Binding of Control Serum Blood-Bank to Looped peptides: 0.6
  Binding of Control serum Blood-bank to linear peptides: 0.5
  Binding of Control serum LUMC to linear peptides: 0.6
  Binding of Control serum LUMC to looped peptides: 0.5
[2]
  Binding of serum 1a to linear peptides of protein E of SARS-CoV Urbani: 0.9
  Binding of serum 1a to looped/cyclic peptides of protein E of SARS-CoV Urbani: 0.4
  Binding of serum 1b to linear peptides of protein E of SARS-CoV Urbani: 0.7
  Binding of serum 1b to looped/cyclic peptides of protein E of SARS-CoV Urbani: 0.3
  Binding of serum 2 to linear peptides of protein E of SARS-CoV Urbani: 0.3
  Binding of serum 2 to looped/cyclic peptides of protein E of SARS-CoV Urbani: 0.3
  Binding of serum 6 to linear peptides of protein E of SARS-CoV Urbani: 0.7
  Binding of serum 6 to looped/cyclic peptides of protein E of SARS-CoV Urbani: 0.5
  Binding of serum 37 to linear peptides of protein E of SARS-CoV Urbani: 0.7
  Binding of serum 37 to looped/cyclic peptides of protein E of SARS-CoV Urbani: 0.4
  Binding of serum 62 to linear peptides of protein E of SARS-CoV Urbani: 0.7
  Binding of serum 62 to looped/cyclic peptides of protein E of SARS-CoV Urbani: 0.7
  Binding of serum London to linear peptides of protein E of SARS-CoV Urbani: 0.5
  Binding of serum London to looped/cyclic peptides of protein E of SARS-CoV Urbani: 0.5
  Binding of serum SARS-green to linear peptides of protein E of SARS-CoV Urbani: 0.4
  Binding of serum SARS-green to looped/cyclic peptides of protein E of SARS-CoV Urbani: 0.4
  Binding of serum SARS-yellow to linear peptides of protein E of SARS-CoV Urbani: 0.1
  Binding of serum SARS-yellow to looped/cyclic peptides of protein E of SARS-CoV Urbani: 0.5
[3]
  Binding of a rabbit serum to linear peptides: 0.7
  Binding of a rabbit serum to looped peptides: 0.0

## SFVSEETGTLIVNSV
[1]
  Binding of Control Serum Blood-Bank to Looped peptides: 0.7
  Binding of Control serum Blood-bank to linear peptides: 0.9
  Binding of Control serum LUMC to linear peptides: 0.6
  Binding of Control serum LUMC to looped peptides: 0.7
[2]
  Binding of serum 1a to linear peptides of protein E of SARS-CoV Urbani: 0.9
  Binding of serum 1a to looped/cyclic peptides of protein E of SARS-CoV Urbani: 0.5
  Binding of serum 1b to linear peptides of protein E of SARS-CoV Urbani: 0.7
  Binding of serum 1b to looped/cyclic peptides of protein E of SARS-CoV Urbani: 0.4
  Binding of serum 2 to linear peptides of protein E of SARS-CoV Urbani: 0.6
  Binding of serum 2 to looped/cyclic peptides of protein E of SARS-CoV Urbani: 0.5
  Binding of serum 6 to linear peptides of protein E of SARS-CoV Urbani: 0.6
  Binding of serum 6 to looped/cyclic peptides of protein E of SARS-CoV Urbani: 0.4
  Binding of serum 37 to linear peptides of protein E of SARS-CoV Urbani: 0.8
  Binding of serum 37 to looped/cyclic peptides of protein E of SARS-CoV Urbani: 0.6
  Binding of serum 62 to linear peptides of protein E of SARS-CoV Urbani: 0.8
  Binding of serum 62 to looped/cyclic peptides of protein E of SARS-CoV Urbani: 0.7
  Binding of serum London to linear peptides of protein E of SARS-CoV Urbani: 0.5
  Binding of serum London to looped/cyclic peptides of protein E of SARS-CoV Urbani: 0.5
  Binding of serum SARS-green to linear peptides of protein E of SARS-CoV Urbani: 0.5
  Binding of serum SARS-green to looped/cyclic peptides of protein E of SARS-CoV Urbani: 0.4
  Binding of serum SARS-yellow to linear peptides of protein E of SARS-CoV Urbani: 0.1
  Binding of serum SARS-yellow to looped/cyclic peptides of protein E of SARS-CoV Urbani: 0.7
[3]
  Binding of a rabbit serum to linear peptides: 0.5
  Binding of a rabbit serum to looped peptides: 0.1

## TGTLIVNSVLLFLAF
[1]
  Binding of Control Serum Blood-Bank to Looped peptides: 0.4
  Binding of Control serum Blood-bank to linear peptides: 0.6
  Binding of Control serum LUMC to linear peptides: 0.3
  Binding of Control serum LUMC to looped peptides: 0.5
[2]
  Binding of serum 1a to looped/cyclic peptides of protein E of SARS-CoV Urbani: 0.4
  Binding of serum 1b to looped/cyclic peptides of protein E of SARS-CoV Urbani: 0.3
  Binding of serum 2 to looped/cyclic peptides of protein E of SARS-CoV Urbani: 0.4
  Binding of serum 6 to looped/cyclic peptides of protein E of SARS-CoV Urbani: 0.3
  Binding of serum 37 to looped/cyclic peptides of protein E of SARS-CoV Urbani: 0.3
  Binding of serum 62 to looped/cyclic peptides of protein E of SARS-CoV Urbani: 0.6
  Binding of serum London to looped/cyclic peptides of protein E of SARS-CoV Urbani: 0.3
  Binding of serum SARS-green to looped/cyclic peptides of protein E of SARS-CoV Urbani: 0.2
  Binding of serum SARS-yellow to looped/cyclic peptides of protein E of SARS-CoV Urbani: 0.4
[3]
  Binding of a rabbit serum to linear peptides: 0.5
  Binding of a rabbit serum to looped peptides: 0.0

## TLAILTALRLCAYCC
[1]
  Binding of Control Serum Blood-Bank to Looped peptides: 0.7
  Binding of Control serum Blood-bank to linear peptides: 0.6
  Binding of Control serum LUMC to linear peptides: 0.4
  Binding of Control serum LUMC to looped peptides: 0.8
[2]
  Binding of serum 1a to linear peptides of protein E of SARS-CoV Urbani: 0.8
  Binding of serum 1a to looped/cyclic peptides of protein E of SARS-CoV Urbani: 0.7
  Binding of serum 1b to linear peptides of protein E of SARS-CoV Urbani: 0.9
  Binding of serum 1b to looped/cyclic peptides of protein E of SARS-CoV Urbani: 0.6
  Binding of serum 2 to linear peptides of protein E of SARS-CoV Urbani: 0.3
  Binding of serum 2 to looped/cyclic peptides of protein E of SARS-CoV Urbani: 0.7
  Binding of serum 6 to linear peptides of protein E of SARS-CoV Urbani: 0.6
  Binding of serum 6 to looped/cyclic peptides of protein E of SARS-CoV Urbani: 0.7
  Binding of serum 37 to linear peptides of protein E of SARS-CoV Urbani: 0.7
  Binding of serum 37 to looped/cyclic peptides of protein E of SARS-CoV Urbani: 0.7
  Binding of serum 62 to linear peptides of protein E of SARS-CoV Urbani: 0.7
  Binding of serum 62 to looped/cyclic peptides of protein E of SARS-CoV Urbani: 0.7
  Binding of serum London to linear peptides of protein E of SARS-CoV Urbani: 0.5
  Binding of serum London to looped/cyclic peptides of protein E of SARS-CoV Urbani: 0.5
  Binding of serum SARS-green to linear peptides of protein E of SARS-CoV Urbani: 0.5
  Binding of serum SARS-green to looped/cyclic peptides of protein E of SARS-CoV Urbani: 0.5
  Binding of serum SARS-yellow to linear peptides of protein E of SARS-CoV Urbani: 0.2
  Binding of serum SARS-yellow to looped/cyclic peptides of protein E of SARS-CoV Urbani: 0.9
[3]
  Binding of a rabbit serum to linear peptides: 0.7
  Binding of a rabbit serum to looped peptides: 0.4

## VAALVFLILCFTIKR
[1]
  Binding of Control Serum Blood-Bank to Looped peptides: 0.8
  Binding of Control serum Blood-bank to linear peptides: 0.5
  Binding of Control serum LUMC to linear peptides: 0.4
  Binding of Control serum LUMC to looped peptides: 0.6
[2]
  Binding of serum 1a to linear peptides of protein X4 of SARS-CoV Urbani: 0.6
  Binding of serum 1a to looped/cyclic peptides of protein X4 of SARS-CoV Urbani: 0.8
  Binding of serum 1b to linear peptides of protein X4 of SARS-CoV Urbani: 0.5
  Binding of serum 1b to looped/cyclic peptides of protein X4 of SARS-CoV Urbani: 0.4
  Binding of serum 2 to linear peptides of protein X4 of SARS-CoV Urbani: 0.4
  Binding of serum 2 to looped/cyclic peptides of protein X4 of SARS-CoV Urbani: 0.7
  Binding of serum 6 to linear peptides of protein X4 of SARS-CoV Urbani: 0.5
  Binding of serum 6 to looped/cyclic peptides of protein X4 of SARS-CoV Urbani: 0.6
  Binding of serum 37 to linear peptides of protein X4 of SARS-CoV Urbani: 0.7
  Binding of serum 37 to looped/cyclic peptides of protein X4 of SARS-CoV Urbani: 0.7
  Binding of serum 62 to linear peptides of protein X4 of SARS-CoV Urbani: 0.7
  Binding of serum 62 to looped/cyclic peptides of protein X4 of SARS-CoV Urbani: 0.7
  Binding of serum London to linear peptides of protein X4 of SARS-CoV Urbani: 0.6
  Binding of serum London to looped/cyclic peptides of protein X4 of SARS-CoV Urbani: 0.3
  Binding of serum SARS-green to linear peptides of protein X4 of SARS-CoV Urbani: 0.5
  Binding of serum SARS-green to looped/cyclic peptides of protein X4 of SARS-CoV Urbani: 0.4
  Binding of serum SARS-yellow to linear peptides of protein X4 of SARS-CoV Urbani: 0.5
  Binding of serum SARS-yellow to looped/cyclic peptides of protein X4 of SARS-CoV Urbani: 0.5
[3]
  Rabbit serum linear peptides: 0.5
  Rabbit serum looped peptides: 0.6
